According to PubChem BioAssay (NCI):
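Values below derive from 48-hour exposures of cells grown in 96-well plates, with endpoints linearly interpolated between the two concentrations bracketing the appropriate inhibition level. At the TGI there is no net growth.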

Assays:
Experiment in all cases: inhibition of tumour cell growth, NCI panel, 48 h
786-0 renal = tested on: 786-0 renal
A498 renal = tested on: A498 renal
A549 NSCLC = tested on: A549 NSCLC
ACHN renal = tested on: ACHN renal
CAKI-1 renal = tested on: CAKI-1 renal
CCRF-CEM leukemia = tested on: CCRF-CEM leukemia
COLO 205 colon = tested on: COLO 205 colon
DU-145 prostate = tested on: DU-145 prostate
EKVX NSCLC = tested on: EKVX NSCLC
HCT-116 colon = tested on: HCT-116 colon
HL-60(TB) leukemia = tested on: HL-60(TB) leukemia
HOP-62 NSCLC = tested on: HOP-62 NSCLC
HOP-92 NSCLC = tested on: HOP-92 NSCLC
HS 578T breast = tested on: HS 578T breast
HT29 colon = tested on: HT29 colon
IGROV1 ovarian = tested on: IGROV1 ovarian
K-562 leukemia = tested on: K-562 leukemia
KM12 colon = tested on: KM12 colon
LOX IMVI melanoma = tested on: LOX IMVI melanoma
M14 melanoma = tested on: M14 melanoma
MALME-3M melanoma = tested on: MALME-3M melanoma
MCF7 breast = tested on: MCF7 breast
MDA-MB-231 breast = tested on: MDA-MB-231 breast
MDA-MB-435 = tested on: MDA-MB-435
MDA-N = tested on: MDA-N
MOLT-4 leukemia = tested on: MOLT-4 leukemia
NCI-H226 lung = tested on: NCI-H226 lung
NCI-H522 lung = tested on: NCI-H522 lung
OVCAR-3 ovarian = tested on: OVCAR-3 ovarian
OVCAR-4 ovarian = tested on: OVCAR-4 ovarian
OVCAR-5 ovarian = tested on: OVCAR-5 ovarian
OVCAR-8 ovarian = tested on: OVCAR-8 ovarian
PC-3 prostate = tested on: PC-3 prostate
RPMI-8226 leukemia = tested on: RPMI-8226 leukemia
RXF 393 renal = tested on: RXF 393 renal
SF-268 CNS = tested on: SF-268 CNS
SF-295 CNS = tested on: SF-295 CNS
SF-539 CNS = tested on: SF-539 CNS
SK-MEL-2 melanoma = tested on: SK-MEL-2 melanoma
SK-MEL-28 melanoma = tested on: SK-MEL-28 melanoma
SK-MEL-5 melanoma = tested on: SK-MEL-5 melanoma
SK-OV-3 ovarian = tested on: SK-OV-3 ovarian
SN12C renal = tested on: SN12C renal
SNB-19 CNS = tested on: SNB-19 CNS
SNB-75 CNS = tested on: SNB-75 CNS
SR leukemia = tested on: SR leukemia
SW-620 colon = tested on: SW-620 colon
T-47D breast = tested on: T-47D breast
TK-10 renal = tested on: TK-10 renal
U251 CNS = tested on: U251 CNS
UACC-257 melanoma = tested on: UACC-257 melanoma
UO-31 renal = tested on: UO-31 renal

Compound: COc1ccc2c(O)c1-c1c(OC)ccc(c1O)SSc1ccc(OC)c(c1O)-c1c(OC)ccc(c1O)SS2
- TGI (786-0 renal): > 100 µM
- TGI (A498 renal): > 100 µM
- TGI (A549 NSCLC): > 100 µM
- TGI (ACHN renal): 18.5 µM
- TGI (CAKI-1 renal): > 100 µM
- TGI (CCRF-CEM leukemia): > 100 µM
- TGI (COLO 205 colon): > 100 µM
- TGI (DU-145 prostate): > 100 µM
- TGI (EKVX NSCLC): 44 µM
- TGI (HCT-116 colon): > 100 µM
- TGI (HL-60(TB) leukemia): > 100 µM
- TGI (HOP-62 NSCLC): > 100 µM
- TGI (HOP-92 NSCLC): 90.1 µM
- TGI (HS 578T breast): > 100 µM
- TGI (HT29 colon): > 100 µM
- TGI (IGROV1 ovarian): > 100 µM
- TGI (K-562 leukemia): 97.1 µM
- TGI (KM12 colon): > 100 µM
- TGI (LOX IMVI melanoma): > 100 µM
- TGI (M14 melanoma): > 100 µM
- TGI (MALME-3M melanoma): > 100 µM
- TGI (MCF7 breast): > 100 µM
- TGI (MDA-MB-231 breast): > 100 µM
- TGI (MDA-MB-435): > 100 µM
- TGI (MDA-N): > 100 µM
- TGI (MOLT-4 leukemia): > 100 µM
- TGI (NCI-H226 lung): > 100 µM
- TGI (NCI-H522 lung): 15.5 µM
- TGI (OVCAR-3 ovarian): > 100 µM
- TGI (OVCAR-4 ovarian): 69.8 µM
- TGI (OVCAR-5 ovarian): > 100 µM
- TGI (OVCAR-8 ovarian): > 100 µM
- TGI (PC-3 prostate): 26.4 µM
- TGI (RPMI-8226 leukemia): 7.07 µM
- TGI (RXF 393 renal): 60 µM
- TGI (SF-268 CNS): > 100 µM
- TGI (SF-295 CNS): > 100 µM
- TGI (SF-539 CNS): 69.1 µM
- TGI (SK-MEL-2 melanoma): > 100 µM
- TGI (SK-MEL-28 melanoma): > 100 µM
- TGI (SK-MEL-5 melanoma): > 100 µM
- TGI (SK-OV-3 ovarian): > 100 µM
- TGI (SN12C renal): > 100 µM
- TGI (SNB-19 CNS): > 100 µM
- TGI (SNB-75 CNS): > 100 µM
- TGI (SR leukemia): 21.5 µM
- TGI (SW-620 colon): > 100 µM
- TGI (T-47D breast): 62.9 µM
- TGI (TK-10 renal): > 100 µM
- TGI (U251 CNS): 69 µM
- TGI (UACC-257 melanoma): > 100 µM
- TGI (UO-31 renal): 14 µM
